Three compounds from US11717508B2, “Compounds, compositions, and methods for inhibiting bacterial growth” (priority 2016, dated 2023) can be followed below.

Structures are written as SMILES. Read-outs that look alike come from different tables or passages of the source.

In one test the test system is Mtb Erdman. The test can be described thus: microbe, parasite or virus in culture. Particulars: Mycobacterium tuberculosis, 240 h, read-out: reduction of Mtb viability in the presence of 5 μM INH relative to cultures not treated with INH.
The subject of the next test is Mtb CDC1551. The test can be described thus: microbe, parasite or virus in culture. Particulars: Mycobacterium tuberculosis, CDC1551, read-out: reduction of viability relative to DMSO treated control.
The next test has as its system TAG accumulation. Format: cell-based, Mycobacterium tuberculosis.
The next test deals with DosT (Mycobacterium tuberculosis, UniProt P9WGK1). Format: biochemical.
DosT, sequence (P9WGK1 whole entry): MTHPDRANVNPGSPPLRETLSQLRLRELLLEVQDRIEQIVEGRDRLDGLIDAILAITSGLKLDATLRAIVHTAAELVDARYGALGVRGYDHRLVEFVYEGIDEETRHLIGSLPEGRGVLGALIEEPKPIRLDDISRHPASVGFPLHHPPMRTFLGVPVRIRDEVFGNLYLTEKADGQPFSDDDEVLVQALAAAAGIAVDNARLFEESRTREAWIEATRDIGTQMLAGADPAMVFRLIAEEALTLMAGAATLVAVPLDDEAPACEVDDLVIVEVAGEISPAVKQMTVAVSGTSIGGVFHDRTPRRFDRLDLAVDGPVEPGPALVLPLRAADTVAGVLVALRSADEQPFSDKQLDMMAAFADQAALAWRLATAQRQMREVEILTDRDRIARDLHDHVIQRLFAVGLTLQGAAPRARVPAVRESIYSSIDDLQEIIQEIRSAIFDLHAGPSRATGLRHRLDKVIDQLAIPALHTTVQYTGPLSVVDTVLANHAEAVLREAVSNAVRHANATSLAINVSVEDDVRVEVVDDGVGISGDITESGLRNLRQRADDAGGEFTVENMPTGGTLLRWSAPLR

As to `C[C@@H]1CC(C)(C)C[C@]2(C1)NC(=O)NC2=O` (racemic) [HC102A, 7,7,9-trimethyl-1,3-diazaspiro[4.5]decane-2,4-dione], the inhibition at 40 µM in the test with Mtb Erdman is about 30%. The inhibition at 10 µM in the test on Mtb CDC1551 was about 50%. Besides, in the test with TAG accumulation (CDC1551, 40 μM, 6 days), the “reduction in TAG accumulation” value was 67%. The “effect on redox status of DosT heme” value on DosT (UV-visible spectra) was “no impact on the redox status”.
With `C[C@@H]1CC[C@H]2[C@@H](C)C(=O)O[C@@H]3O[C@]4(C)CC[C@@H]1[C@]32OO4` [HC101A, artemisinin, reference compound], the inhibition at 40 µM in the test with Mtb Erdman is about 30%. Also, the inhibition at 10 µM in the test on Mtb CDC1551 was about 50%. Besides, the “reduction in TAG accumulation” value with TAG accumulation (CDC1551, 40 μM, 6 days) was determined as 74%. Besides, on DosT (DTN-reduced DosT), the “concentration at which artemisinin modulates DosT heme / inhibits DosT” value came to 50 µM.
Consider `O=C(Nc1cccc(O)c1)c1cccc(NC(=O)c2cccs2)c1` [HC103A, N-[3-[(3 hydroxyphenyl)carbamoyl]phenyl]thiophene-2-carboxamide], for which, in the test with Mtb Erdman, the inhibition at 40 µM was about 30%. Besides, in the test with Mtb CDC1551, the inhibition at 10 µM was about 50%. The “reduction in TAG accumulation” value in the test on TAG accumulation came to 56%. In addition, the “effect on redox status of DosT heme” value on DosT is “no impact on the redox status”.
